Assay results: PubChem BioAssay (NCI)
Several values for one entry are separate records, joined by “and”; a condition that tells them apart may be missing. Equal entries are not always repeated.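 Interpolation was linear, between the two tested concentrations surrounding the appropriate level; five concentrations were tested over 48 hours in 96-well plates. The concentration for 50% growth inhibition is given as GI50. TGI marks complete inhibition of growth.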

Columns and labels:
Experiment in all cases: inhibition of tumour cell growth, NCI panel, 48 h
[1] = system: SNB-75 CNS
[2] = system: UACC-62 melanoma
[3] = system: SF-295 CNS
[4] = system: NCI-H522 lung
[5] = system: MDA-MB-231 breast
[6] = system: HOP-62 NSCLC
[7] = system: OVCAR-8 ovarian
[8] = system: SK-MEL-28 melanoma
[9] = system: SN12C renal
[10] = system: OVCAR-4 ovarian

CC(C)=Cc1cccc2[nH]c(O)c(N=Nc3ccc(S(N)(=O)=O)cc3)c12
GI50 [1]: > 8.54 µM | TGI [1]: > 25 µM | GI50 [2]: > 25 µM | TGI [2]: > 25 µM | GI50 [3]: 3.4 µM | TGI [3]: > 25 µM | GI50 [4]: > 25 µM | TGI [4]: > 25 µM | GI50 [5]: 7.17 µM | TGI [5]: > 25 µM | GI50 [6]: > 14.3 µM | TGI [6]: > 25 µM | GI50 [7]: 5 µM | TGI [7]: > 25 µM | GI50 [8]: > 25 µM | TGI [8]: > 25 µM | GI50 [9]: > 25 µM | TGI [9]: > 25 µM | GI50 [10]: 1.26 µM | TGI [10]: > 25 µM

COc1ccccc1NC(=O)CC(=O)n1nc(C)c(N=Nc2ccccc2Cl)c1C
TGI [1]: 57.2 µM | TGI [2]: > 100 µM | TGI [3]: > 100 µM | TGI [4]: > 100 µM | TGI [5]: > 100 µM | TGI [6]: > 100 µM | TGI [7]: > 100 µM | TGI [8]: > 100 µM | TGI [9]: > 100 µM | TGI [10]: > 100 µM

CCN(CCO)CCCC(C)Nc1ccnc2cc(Cl)ccc12 (stereo unspecified)
GI50 [1]: > 100 µM | TGI [1]: > 100 µM | GI50 [2]: > 100 µM | TGI [2]: > 100 µM | GI50 [3]: > 100 µM | TGI [3]: > 100 µM | GI50 [4]: > 100 µM | TGI [4]: > 100 µM | GI50 [5]: > 100 µM | TGI [5]: > 100 µM | GI50 [6]: > 100 µM | TGI [6]: > 100 µM | GI50 [7]: > 100 µM | TGI [7]: > 100 µM | GI50 [8]: > 100 µM | TGI [8]: > 100 µM | GI50 [9]: > 100 µM | TGI [9]: > 100 µM | GI50 [10]: > 100 µM | TGI [10]: > 100 µM

CN[C@@H](Cc1cccc2ccccc12)C(=O)N[C@@H](CC(C)C)B(O)O
GI50 [1]: 0.0227 µM | TGI [1]: 0.0617 µM | GI50 [2]: 0.017 µM | TGI [2]: 0.0344 µM and < 0.0154 µM | GI50 [3]: 0.0231 µM | TGI [3]: 0.0828 µM and 0.0156 µM | TGI [4]: < 0.0103 µM | GI50 [5]: 0.0201 µM | TGI [5]: 0.0446 µM and < 0.0145 µM | GI50 [6]: 0.0371 µM | TGI [6]: 0.129 µM and 0.0368 µM | GI50 [7]: 0.0259 µM | TGI [7]: 0.0844 µM | GI50 [8]: 0.0119 µM | TGI [8]: 0.0271 µM | GI50 [9]: 0.0167 µM | TGI [9]: 0.0722 µM and 0.0185 µM | GI50 [10]: 0.0239 µM

COc1cc(NS(C)(=O)=O)ccc1Cc1c2ccccc2nc2ccccc12
GI50 [1]: 0.188 µM | TGI [1]: 1.54 µM | GI50 [2]: 0.101 µM | TGI [2]: 1.67 µM | GI50 [3]: 0.0475 µM | TGI [3]: 1.22 µM | GI50 [4]: 0.0712 µM | TGI [4]: 0.961 µM | GI50 [5]: 1.28 µM | TGI [5]: 2.78 µM | GI50 [6]: 0.059 µM | TGI [6]: 0.368 µM | GI50 [7]: 0.146 µM | TGI [7]: 1.37 µM | GI50 [8]: 0.672 µM | TGI [8]: 2.36 µM | GI50 [9]: 0.0742 µM | TGI [9]: 1.17 µM | GI50 [10]: 1.25 µM | TGI [10]: 2.52 µM

COc1ccc2nc3c(cc2c1)C(=O)CC(c1ccccc1)C3 (stereo unspecified)
GI50 [1]: 0.181 µM | TGI [1]: > 100 µM | GI50 [2]: 0.601 µM | TGI [2]: > 100 µM | GI50 [3]: 0.905 µM | TGI [3]: 11 µM | GI50 [4]: 0.401 µM | TGI [4]: > 67.4 µM | GI50 [5]: 3 µM | TGI [5]: > 100 µM | GI50 [6]: 2.75 µM | TGI [6]: > 100 µM | GI50 [7]: 0.934 µM | TGI [7]: > 100 µM | GI50 [8]: 4.09 µM | TGI [8]: > 100 µM | GI50 [9]: 0.732 µM | TGI [9]: > 100 µM | GI50 [10]: > 100 µM | TGI [10]: > 100 µM

O=[N+]([O-])c1ccc(N=Nc2c(Cl)cc(O)cc2Cl)cc1
GI50 [1]: > 100 µM | TGI [1]: > 100 µM | GI50 [2]: 1.39 µM | TGI [2]: 3.59 µM | GI50 [3]: 1.56 µM | TGI [3]: 3.06 µM | GI50 [4]: 0.473 µM | TGI [4]: 4.09 µM | GI50 [5]: 0.7 µM | TGI [5]: 4.86 µM | GI50 [6]: 2.17 µM | TGI [6]: 5.87 µM | GI50 [7]: 1.09 µM | TGI [7]: 5.63 µM | GI50 [8]: 1.92 µM | TGI [8]: 8.55 µM | GI50 [9]: 0.875 µM | TGI [9]: 10.3 µM | GI50 [10]: 1.39 µM | TGI [10]: 12 µM

Cc1ccc2[nH]c(O)c(N=Nc3ccccc3[N+](=O)[O-])c2c1
TGI [1]: > 50 µM | TGI [2]: > 100 µM | TGI [3]: > 58.8 µM | TGI [4]: 5.29 µM | TGI [5]: 6.03 µM | TGI [6]: 10.7 µM | TGI [7]: > 33.9 µM | TGI [8]: > 100 µM | TGI [9]: > 100 µM | TGI [10]: 6.18 µM

O=C(Nc1n[nH]c2nc(-c3ccc(O)cc3)c(Br)cc12)C1CC1
GI50 [1]: 6.21 µM | TGI [1]: 12.5 µM | GI50 [2]: 4.26 µM | TGI [2]: 11.9 µM | GI50 [3]: 2.38 µM | TGI [3]: 14.8 µM | GI50 [4]: 4.33 µM | TGI [4]: 12.1 µM | GI50 [5]: 5.52 µM | TGI [5]: 16.8 µM | GI50 [6]: 5.32 µM | TGI [6]: 14 µM | GI50 [7]: 4.71 µM | TGI [7]: > 22.1 µM | GI50 [8]: 3.85 µM | TGI [8]: 9.88 µM | GI50 [9]: 3.41 µM | TGI [9]: 20.1 µM | GI50 [10]: 5.17 µM | TGI [10]: 14.4 µM

COc1ccc(C2CC(c3ccc(OC)cc3O)=NN2c2ccc(S(N)(=O)=O)cc2)cc1 (stereo unspecified)
GI50 [1]: 20.8 µM | TGI [1]: > 100 µM | GI50 [2]: 8.76 µM | TGI [2]: > 100 µM | GI50 [3]: 29.4 µM | TGI [3]: > 100 µM | GI50 [4]: 15.5 µM | TGI [4]: > 100 µM | GI50 [5]: 15.3 µM | TGI [5]: > 100 µM | GI50 [6]: 33.1 µM | TGI [6]: > 100 µM | GI50 [7]: 24.1 µM | TGI [7]: > 100 µM | GI50 [8]: 15 µM | TGI [8]: > 100 µM | GI50 [9]: 16.7 µM | TGI [9]: > 100 µM | GI50 [10]: 30.8 µM | TGI [10]: > 100 µM

O=C1/C(=C/c2ccc(F)cc2)CN(C(=O)C(Cl)Cl)C/C1=C\c1ccc(F)cc1
GI50 [1]: 1.45 µM | TGI [1]: 2.93 µM | GI50 [2]: 0.237 µM | TGI [2]: 0.641 µM | GI50 [3]: 0.23 µM | TGI [3]: 0.67 µM | GI50 [4]: 1.5 µM | TGI [4]: 3.27 µM | GI50 [5]: 0.323 µM | TGI [5]: 1.09 µM | GI50 [6]: 0.407 µM | TGI [6]: 1.51 µM | GI50 [7]: 0.295 µM | TGI [7]: 1.64 µM | GI50 [8]: 0.257 µM | TGI [8]: 0.666 µM | GI50 [9]: 0.222 µM | TGI [9]: 0.556 µM | GI50 [10]: 0.321 µM | TGI [10]: 1.15 µM

CCc1[nH]nc(C(N)=O)c1N=NN(C)C
TGI [1]: > 100 µM | TGI [2]: > 100 µM | TGI [3]: > 100 µM | TGI [4]: > 100 µM | TGI [5]: > 100 µM | TGI [6]: > 100 µM | TGI [7]: > 100 µM | TGI [8]: > 100 µM | TGI [9]: > 100 µM | TGI [10]: > 100 µM

S=C1SCN(Cc2ccccc2)CN1Cc1ccccc1
GI50 [1]: 15.4 µM | TGI [1]: > 48.1 µM | GI50 [2]: 5.05 µM | TGI [2]: 16.9 µM | GI50 [3]: 24.4 µM | TGI [3]: > 90 µM | GI50 [4]: 3.83 µM | TGI [4]: 10 µM | GI50 [5]: 3.04 µM | TGI [5]: 10.1 µM | GI50 [6]: 55.6 µM | TGI [6]: > 100 µM | GI50 [7]: 21.6 µM | TGI [7]: 90 µM | GI50 [8]: 5.27 µM | TGI [8]: 17.9 µM | GI50 [9]: 5.01 µM | TGI [9]: 18.5 µM | GI50 [10]: 9.43 µM | TGI [10]: 27.6 µM

O=c1cc(-c2ccccc2)oc2c1ccc1ccccc12
GI50 [1]: 11.6 µM | TGI [1]: 45.9 µM | GI50 [2]: 12.3 µM | TGI [2]: > 100 µM | GI50 [4]: 30.5 µM | TGI [4]: > 100 µM | GI50 [5]: 12.5 µM | TGI [5]: 67.9 µM | GI50 [6]: 29.6 µM | TGI [6]: > 100 µM | GI50 [7]: 26 µM | TGI [7]: > 100 µM | GI50 [8]: 29.3 µM | TGI [8]: > 100 µM | GI50 [9]: 19.6 µM | TGI [9]: > 100 µM | GI50 [10]: 21.2 µM | TGI [10]: > 100 µM
